Results on one sequence are retold here after paper PMC12700550, “DLL4^+ neutrophils promote Notch1-mediated endothelial PANoptosis to exacerbate acute lung injury in sepsis” (The Journal of Clinical Investigation, 2025).

Several values for one entry are separate records, joined by “and”; a condition that tells them apart may be missing. Identical values can stand only once.

The test system of one data set is ZBP1. Briefly: ZBP1 protein in lungs of CLP mice, Western blot. The settings on record: 10 mg/kg NDI, 20 h; for lung ZBP1 protein (Figure 5B): individual mice, 10 mg/kg. It counts as in vivo, mouse. The protocol: (§1) Sepsis was induced in mice by cecal ligation and puncture (CLP) as described previously ([45], [46]). Mice were anesthetized with isoflurane to a surgical plane and placed in a supine position. CLP was performed through a midline laparotomy. The abdomen was shaved and disinfected. Through a 2 cm midline incision, the cecum was exposed and then ligated with a 4-0 silk suture 1 cm proximal from the distal cecal extremity. For 20-hour CLP experiments, the cecum was punctured twice with a 22-gauge needle. A small amount of cecal content was extruded through both holes, and the ligated cecum was returned to the peritoneal cavity. The wound was closed in layers. For 10-day sepsis survival studies, the cecum was punctured once with a 22-gauge needle. A small amount of cecal content was extruded. Mice were allocated to the vehicle and adoptive transfer of DLL4^+ neutrophils or DLL4^– neutrophils groups. Adoptive transfer mice received a retro-orbital injection of 1 × 10^6 cells per mouse DLL4^+ neutrophils or DLL4^– neutrophils in […] phosphate-buffered saline (PBS) immediately after abdominal closure in both the 20-hour experiments and the survival study. Vehicle groups received an equivalent volume of PBS, while treatment groups received NDI 10 mg/kg in […] PBS via retro-orbital injection after CLP. This dose was chosen primarily on the basis of our laboratory’s prior experience, we have consistently used this dose in mouse CLP models with reproducible efficacy and without observable toxicity ([39], [44]). Sham-operated animals underwent a laparotomy without CLP. After closure, the mice received a subcutaneous injection of 0.5 mL of normal saline to overcome surgery-induced dehydration. […]
PVECs and lung tissue were collected in previous steps. Whole-cell proteins were extracted, and the protein concentration was measured using an ABC protein assay kit (catalog 5000002, Bio-Rad). […] Bands were detected using an Odyssey FC Dual-Mode Imaging system 2800 (LI-COR).
On the technique in general: Immunoblotting shows a protein as a band on a membrane.

The subject of the next data set is IL-6. Briefly: Serum IL-6, CLP mice, ELISA. Format: in vivo, mouse. The settings on record: DLL4^+ neutrophil-injected CLP mice, 10 mg/kg, 20 h. The protocol:
Sepsis was induced in mice by cecal ligation and puncture (CLP) as described previously ([45], [46]). Mice were anesthetized with isoflurane to a surgical plane and placed in a supine position. CLP was performed through a midline laparotomy. The abdomen was shaved and disinfected. Through a 2 cm midline incision, the cecum was exposed and then ligated with a 4-0 silk suture 1 cm proximal from the distal cecal extremity. For 20-hour CLP experiments, the cecum was punctured twice with a 22-gauge needle. A small amount of cecal content was extruded through both holes, and the ligated cecum was returned to the peritoneal cavity. The wound was closed in layers. For 10-day sepsis survival studies, the cecum was punctured once with a 22-gauge needle. A small amount of cecal content was extruded. Mice were allocated to the vehicle and adoptive transfer of DLL4^+ neutrophils or DLL4^– neutrophils groups. […]
Blood was collected by heart puncture and centrifuged at 1,500g and 4°C for 10 minutes, and the plasma was separated to assess cytokine levels using enzyme-linked immunosorbent assay (ELISA) kits (BD Biosciences). The plasma TNF-α (catalog 558534) and IL-6 (catalog 555240) levels were measured by ELISA.

Data set [1] relates to C57BL/6 mice, CLP sepsis. Briefly: Evans blue dye lung extravasation, CLP mice. The settings on record: 20 h; for Evans blue dye, EBD/dry lung tissue (Figure 6L): 10 mg/kg NDI, EBD 20 mg/kg, individual mice. Format: in vivo, mouse. The protocol:
Sepsis was induced in mice by cecal ligation and puncture (CLP) as described previously ([45], [46]). Mice were anesthetized with isoflurane to a surgical plane and placed in a supine position. CLP was performed through a midline laparotomy. The abdomen was shaved and disinfected. Through a 2 cm midline incision, the cecum was exposed and then ligated with a 4-0 silk suture 1 cm proximal from the distal cecal extremity. […] A small amount of cecal content was extruded through both holes, and the ligated cecum was returned to the peritoneal cavity. The wound was closed in layers. […] A small amount of cecal content was extruded. […] Vehicle groups received an equivalent volume of PBS, while treatment groups received NDI 10 mg/kg in […] PBS via retro-orbital injection after CLP. This dose was chosen primarily on the basis of our laboratory’s prior experience, we have consistently used this dose in mouse CLP models with reproducible efficacy and without observable toxicity ([39], [44]). Sham-operated animals underwent a laparotomy without CLP. After closure, the mice received a subcutaneous injection of 0.5 mL of normal saline to overcome surgery-induced dehydration. […] All mice were subcutaneously injected with a single dose of 0.1 mg/kg buprenorphine after CLP. Lung vascular leakage was quantified using the Evans blue dye–labeled (EBD-labeled) albumin extravasation assay ([48]). […] Sigma-Aldrich) via retro-orbital injection. […] The whole lung was dehydrated for 48 hours at 60°C, immersed in formamide (1 mL/g wet weight; Sigma-Aldrich) at 37°C for 48 hours, and centrifuged at 5,000g for 30 minutes. The amount of extracted EBD in the supernatant was quantified by spectrophotometry. The concentration of extravasated EBD-albumin in lung homogenates was expressed as nanograms EBD per milligram of dry lung tissue. Lung water content was calculated as (wet weight – dry weight)/wet weight %.

For data set [2], the system named is C57BL/6 mice, CLP sepsis. Put plainly: 10-day survival, CLP mice. Format: in vivo, mouse. The settings on record: 10 mg/kg NDI. As to the method: as §1
Data represented in the figures are expressed as mean ± SEM and were compared by 2-tailed Student’s t test for 2 groups or 1-way ANOVA using Student-Newman-Keuls post hoc analysis for multiple groups. Survival rates were analyzed by the Kaplan-Meier estimator and compared using a log-rank test. […]

The subject of data set [3] is C57BL/6 mice, CLP sepsis. The settings on record: mouse, in vivo, 10 mg/kg. The protocol: as §1, with “CLP.” for “CLP. This dose was chosen primarily on the basis of our laboratory’s prior experience, we have consistently used this dose in mouse CLP models with reproducible efficacy and without observable toxicity ([39], [44]). Sham-operated animals underwent a laparotomy without CLP. After closure, the mice received a subcutaneous injection of 0.5 mL of normal saline to overcome surgery-induced dehydration.”

For the sequence ECAGSPCHNGGTCEDGI [NDI], the “lung ZBP1 protein (Figure 5B)” value in the data set with ZBP1 (DLL4^+ neutrophils + CLP) was 0.846 and 0.9823 and 0.8189 and 0.8666 and 0.6492 and 0.9798 and 0.8814; with ZBP1 (DLL4^– neutrophils + CLP), 1.332 and 0.9583 and 0.9668. For the same sequence, the “effect on lung ZBP1 protein” value with ZBP1 (DLL4^+ neutrophils/sepsis) is “effectively decreased ZBP1 expression”. Besides, the “effect on serum IL-6” value in the data set on IL-6 was “significantly reduced the serum levels of hepatic and cell injury markers and proinflammatory cytokines”. Moreover, the “effect on Evans blue dye content” value with C57BL/6 mice, CLP sepsis [1] (DLL4^+ neutrophil-injected CLP mice, 10 mg/kg) was “significantly attenuated these effects, reducing both lung water content and Evans blue dye content”. Moreover, the “Evans blue dye, EBD/dry lung tissue (Figure 6L)” value in the data set with C57BL/6 mice, CLP sepsis [1] (DLL4^+ neutrophils + CLP) is 94.3739 nanograms EBD per milligram of dry lung tissue and 81.6499 nanograms EBD per milligram of dry lung tissue and 102.841 nanograms EBD per milligram of dry lung tissue and 95.8364 nanograms EBD per milligram of dry lung tissue and 67.7799 nanograms EBD per milligram of dry lung tissue and 56.8397 nanograms EBD per milligram of dry lung tissue and 66.2061 nanograms EBD per milligram of dry lung tissue and 49.7845 nanograms EBD per milligram of dry lung tissue and 71.2396 nanograms EBD per milligram of dry lung tissue; in the data set with C57BL/6 mice, CLP sepsis [1] (DLL4^– neutrophils + CLP), 62.3234 nanograms EBD per milligram of dry lung tissue and 74.8524 nanograms EBD per milligram of dry lung tissue and 79.6398 nanograms EBD per milligram of dry lung tissue and 73.406 nanograms EBD per milligram of dry lung tissue and 63.9328 nanograms EBD per milligram of dry lung tissue and 50.0167 nanograms EBD per milligram of dry lung tissue and 66.1099 nanograms EBD per milligram of dry lung tissue and 61.0318 nanograms EBD per milligram of dry lung tissue and 57.5122 nanograms EBD per milligram of dry lung tissue. Further, the “survival rate, 10 days” value in the data set with C57BL/6 mice, CLP sepsis [2] (N = 20, PBS-injected 15%) amounted to 75%. The “survival event code (Figure 6M)” value with C57BL/6 mice, CLP sepsis [2] (individual mice, code 0 stands at day 10, 1 at earlier days (meaning not given), 10 mg/kg) was 1 and 0. For the same sequence, the “survival time (Figure 6M)” value with C57BL/6 mice, CLP sepsis [2] (no exogenous neutrophils, individual mice, event code in next endpoint, 10 mg/kg) was 3 days and 6 days and 10 days and 2 days and 4 days. Besides, in the data set with C57BL/6 mice, CLP sepsis [3], the “adverse effects” value is on record as “lack of observed adverse effects in treated animals”.
